We go through five compounds from BindingDB's records for doi:10.1016/j.bmcl.2010.10.020 (Incyte, 2010).

Test [1] can be described thus: Antagonist activity at human CCR2 assessed as inhibition of MCP1 induced chemotaxis after 30 mins.
A short description of test [2]: Antagonist activity at mouse CCR2 assessed as inhibition of MCP1 induced chemotaxis after 30 mins.

Regarding `CCO[C@H]1CN([C@H]2CC[C@@](O)(c3ccc(C)cc3)CC2)C[C@@H]1NC(=O)CNC(=O)c1cccc(C(F)(F)F)c1` [N-(2-((3S,4S)-4-ethoxy-1-(cis-4-hydroxy-4-p-tolylcyclohexyl)pyrrolidin-3-ylamino)-2-oxoethyl)-3-(trifluoromethyl)benzamide], the IC50 (as a rule, the concentration that inhibits the measured activity by half) in test [1] was determined as 1.4 nM; in test [2], 13 nM.
Turning to `CCO[C@H]1CN([C@H]2CC[C@@](O)(c3ccccc3)CC2)C[C@@H]1NC(=O)CNC(=O)c1cccc(C(F)(F)F)c1` [N-(2-((3S,4S)-4-ethoxy-1-(cis-4-hydroxy-4-phenylcyclohexyl)pyrrolidin-3-ylamino)-2-oxoethyl)-3-(trifluoromethyl)benzamide], the figures for the IC50 in test [1] and in test [2] were 3 nM and 444 nM, respectively.
For the compound `CCO[C@H]1CN([C@H]2CC[C@@H](c3ccccc3)CC2)C[C@@H]1NC(=O)CNC(=O)c1cccc(C(F)(F)F)c1` [N-(2-((3S,4S)-4-ethoxy-1-(cis-4-phenylcyclohexyl)pyrrolidin-3-ylamino)-2-oxoethyl)-3-(trifluoromethyl)benzamide], the IC50 in test [1] worked out at 6.5 nM; in test [2] it was 14 nM.
As for `O=C(CNC(=O)c1cccc(C(F)(F)F)c1)N[C@H]1CN([C@H]2CC[C@@H](c3ccccc3)CC2)C[C@@H]1O` [N-(2-((3S,4S)-4-hydroxy-1-(cis-4-phenylcyclohexyl)pyrrolidin-3-ylamino)-2-oxoethyl)-3-(trifluoromethyl)benzamide], the IC50 in test [1] was 12 nM; in test [2], 265 nM.
Consider `CCCO[C@H]1CN([C@H]2CC[C@@H](c3ccccc3)CC2)C[C@@H]1NC(=O)CNC(=O)c1cccc(C(F)(F)F)c1` [N-(2-oxo-2-((3S,4S)-1-(cis-4-phenylcyclohexyl)-4-propoxypyrrolidin-3-ylamino)ethyl)-3-(trifluoromethyl)benzamide], for which the results for the IC50 in test [1] and in test [2] were 1.8 nM and 158 nM, respectively.
